Structures can show the parent of a compound that is named as a salt.
Columns and labels:
Adrenergic β2 = biological target: T1, Adrenergic β2 (Homo sapiens, UniProt P07550); test: Adrenergic β2 mediated cAMP production in H292 cells (AlphaScreen), concentration response; assay type: cell-based; conditions: for EC50: 60 min, 300 μM rolipram, read-out: β2 pEC50 (converted); for β2 Intrinsic Activity: fraction relative to the maximum activity determined for formoterol
T1 construct: Adherent H292 cells are removed from tissue culture flasks by treatment with Accutase™ cell detachment solution; endogenous in cells; host or cells: H292 cells
Protocol: Assay for Adrenergic 132 Mediated cAMP Production
H292 cells are grown in 225 cm2 flasks incubator at 37° C., 5% CO2 in RPMI medium containing 10% (v/v) FBS (foetal bovine serum) and 2 mM L-glutamine.
Adherent H292 cells re removed from tissue culture flasks by treatment with Accutase™ cell detachment solution for 15 minutes. Flasks are incubated for 15 minutes in a humidified incubator at 37° C., 5% CO2. Detached cells are re-suspended in RPMI media (containing 10% (v/v) FBS and 2 mM L-glutamine) at 0.1×10^6 cells per mL. 10000 cells in 100 μl, are added to each well of a tissue-culture-treated 96-well plate and the cells incubated overnight in a humidified incubator at 37° C., 5% CO2. The culture media is removed and cells are washed twice with 100 μL assay buffer and replaced with 50 μl assay buffer (HBSS solution containing 10 mM HEPES pH7.4 and 5 mM glucose). Cells are rested at room temperature for 20 minutes after which time 25 μl of rolipram (1.2 mM made up in assay buffer containing 2.4% (v/v) dimethylsulphoxide) is added. Cells are incubated with rolipram for 10 minutes after which time test compounds are added and the cells are incubated for 60 minutes at room temperature. The final rolipram concentration in the assay is 300 μM and final vehicle concentration is 1% (v/v) dimethylsulphoxide. The reaction is stopped by removing supernatants, washing once with 100 μL assay buffer and replacing with 50 μL lysis buffer. The cell monolayer is frozen at −80° C. for 30 minutes (or overnight).
AlphaScreen™ cAMP detection
The concentration of cAMP (cyclic adenosine monophosphate) in the cell lysate is determined using AlphaScreen™ methodology. The frozen cell plate is thawed for 20 minutes on a plate shaker then 10 μL of the cell lysate is transferred to a 96-well white plate. 40 μL of mixed AlphaScreen™ detection beads pre-incubated with biotinylated cAMP, is added to each well and the plate incubated at room temperature for 3 hours in the dark. The AlphaScreen™ signal is measured using an EnVision spectrophotometer (Perkin-Elmer Inc.) with the recommended manufacturer's settings. cAMP concentrations are determined by reference to a calibration curve determined in the same experiment using standard cAMP concentrations. Concentration response curves for agonists are constructed and data is fitted to a four parameter logistic equation to determine both the pEC50 and Intrinsic Activity. Intrinsic Activity is expressed as a fraction relative to the maximum activity determined for formoterol in each experiment.

[1] = biological target: T2, human muscarinic acetylcholine M3 receptor (Homo sapiens, UniProt P20309); test: Muscarinic 3 receptor binding assay ([3H]NMS competition, SPA), pIC50; conditions: [3H]NMS 0.1 nM, CHO-K1 cell membranes expressing human M3 receptor
T2 construct: expressed in transfected cells; host or cells: CHO-K1 (Chinese Hamster Ovary) cell membranes
Protocol: Muscarinic 3 Receptor Binding Assay
The affinity (pIC50) of compounds binding to the M3 receptor is determined by competition binding of [^3H]N-methyl scopolamine (NMS) to CHO-K1 (Chinese Hamster Ovary) cell membranes expressing the human muscarinic acetylcholine M3 receptor (M3-ACh) in a scintillation proximity assay (SPA) format.
SPA beads are precoated with membranes and then incubated at 2 mg of beads per well with serial dilutions of compounds of the invention, [^3H]NMS at 0.1 nM, quarter Kd (experimentally determined dissociation constant) and assay buffer (20 mM HEPES pH 7.4 containing 5 mM MgCl2 and 0.1% (w/v) bovine serum albumin). The assay is conducted in a final volume of 200 μL, in the presence of 1% (v/v) dimethyl sulphoxide (DMSO). Total binding of [^3H]NMS is determined in the absence of competing compound and non-specific binding of [^3H]NMS is determined in the presence of 1 μM atropine. The plates are incubated for 16 hours at room temperature and then read on Wallac Microbeta™ using a normalised ^3H protocol. The pIC50, defined as the negative logarithm of the molar concentration of compound required for 50% reduction in specific [^3H]-NMS binding, is determined.

T1 sequence (P07550 whole entry): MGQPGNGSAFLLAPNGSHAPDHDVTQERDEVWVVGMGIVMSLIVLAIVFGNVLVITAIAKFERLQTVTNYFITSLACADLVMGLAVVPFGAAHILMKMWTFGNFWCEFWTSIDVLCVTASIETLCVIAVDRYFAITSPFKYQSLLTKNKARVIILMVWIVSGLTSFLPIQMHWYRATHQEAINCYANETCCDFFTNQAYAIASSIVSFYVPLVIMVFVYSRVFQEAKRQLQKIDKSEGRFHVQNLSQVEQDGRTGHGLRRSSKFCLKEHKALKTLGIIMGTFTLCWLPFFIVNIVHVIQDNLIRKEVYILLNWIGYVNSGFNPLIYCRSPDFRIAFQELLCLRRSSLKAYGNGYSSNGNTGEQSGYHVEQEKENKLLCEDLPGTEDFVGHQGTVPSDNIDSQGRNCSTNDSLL
T2 sequence (P20309 whole entry): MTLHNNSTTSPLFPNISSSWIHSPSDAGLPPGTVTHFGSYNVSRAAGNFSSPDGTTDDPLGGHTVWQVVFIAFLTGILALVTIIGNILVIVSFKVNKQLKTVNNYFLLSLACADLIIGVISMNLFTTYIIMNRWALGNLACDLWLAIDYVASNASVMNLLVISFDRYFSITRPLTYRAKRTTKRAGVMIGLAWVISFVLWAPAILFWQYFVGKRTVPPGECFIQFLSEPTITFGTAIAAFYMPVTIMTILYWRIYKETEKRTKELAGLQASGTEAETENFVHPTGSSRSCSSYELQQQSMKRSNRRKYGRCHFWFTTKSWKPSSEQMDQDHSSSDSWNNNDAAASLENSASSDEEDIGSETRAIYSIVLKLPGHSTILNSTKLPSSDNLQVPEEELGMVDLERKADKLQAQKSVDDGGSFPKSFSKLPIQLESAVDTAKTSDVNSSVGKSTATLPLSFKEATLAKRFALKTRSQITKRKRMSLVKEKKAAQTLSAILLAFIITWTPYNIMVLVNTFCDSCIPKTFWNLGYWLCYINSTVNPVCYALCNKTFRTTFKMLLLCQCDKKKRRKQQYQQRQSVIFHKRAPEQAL

| EC50 (Adrenergic β2) | β2 Intrinsic Activity (Adrenergic β2) | IC50 [1] | SMILES |
| --- | --- | --- | --- |
| 7.94 nM | 0.8 | 0.631 nM | CCc1nc(C(=O)N2CCOC3(CCN(Cc4cccc(CCOCCC(=O)N(CC)CCNCCc5ccc(O)c6[nH]c(=O)sc56)c4Cl)CC3)C2)cs1 [Example 26, 3-(2-Chloro-3-((4-(2-ethylthiazole-4-carbonyl)-1-oxa-4,9-diazaspiro[5.5]undecan-9-yl)methyl)phenethoxy)-N-ethyl-N-(2-(2-(4-hydroxy-2-oxo-2,3-dihydrobenzo[d]thiazol-7-yl)ethylamino)ethyl)propanamide ditrifluoroacetate] |
| 126 nM | 0.9 | 794 nM | CCN(CCNCCc1ccc(O)c2[nH]c(=O)sc12)C(=O)CCOCCc1cc(Cl)cc(CN2CCC3(CC2)CN(C(=O)c2csc(C(C)C)n2)CCO3)c1 [Example 50, 3-(3-Chloro-5-((4-(2-isopropylthiazole-4-carbonyl)-1-oxa-4,9-diazaspiro[5.5]undecan-9-yl)methyl)phenethoxy)-N-ethyl-N-(2-(2-(4-hydroxy-2-oxo-2,3-dihydrobenzo[d]thiazol-7-yl)ethylamino)ethyl)propanamide ditrifluoroacetate] |
| 12.6 nM | 1.0 | 2.51 nM | CC(C)c1nc(C(=O)N2CCOC3(CCN(CCc4cccc(CCOCCC(=O)N(CCNCCc5ccc(O)c6c5OCC(=O)N6)C5CCCCC5)c4)CC3)C2)cs1 [Example 36, N-Cyclohexyl-N-(2-(2-(5-hydroxy-3-oxo-3,4-dihydro-2H-benzo[b][1,4]oxazin-8-yl)ethylamino)ethyl)-3-(3-(2-(4-(2-isopropylthiazole-4-carbonyl)-1-oxa-4,9-diazaspiro[5.5]undecan-9-yl)ethyl)phenethoxy)propanamide ditrifluoroacetate] |
| 39.8 nM | 0.8 | 0.158 nM | CCN(CCNCCc1ccc(O)c2c1OCC(=O)N2)C(=O)CCOCCc1cccc(CN2CCC3(CC2)CN(C(=O)c2csc(C4CCCC4)n2)CCO3)c1F [Example 25, 3-(3-((4-(2-Cyclopentylthiazole-4-carbonyl)-1-oxa-4,9-diazaspiro[5.5]undecan-9-yl)methyl)-2-fluorophenethoxy)-N-ethyl-N-(2-(2-(5-hydroxy-3-oxo-3,4-dihydro-2H-benzo[b][1,4]oxazin-8-yl)ethylamino)ethyl)propanamide ditrifluoroacetate] |
| 50.1 nM | 1.0 | 0.631 nM | CCc1nc(C(=O)N2CCOC3(CCN(CCc4ccc(CCOCCC(=O)N(CCCCCCO)CCNCCc5ccc(O)c6[nH]c(=O)sc56)cc4)CC3)C2)cs1 [Example 76, 3-(4-(2-(4-(2-Ethylthiazole-4-carbonyl)-1-oxa-4,9-diazaspiro[5.5]undecan-9-yl)ethyl)phenethoxy)-N-(2-(2-(4-hydroxy-2-oxo-2,3-dihydrobenzo[d]thiazol-7-yl)ethylamino)ethyl)-N-(6-hydroxyhexyl)propanamide diformate] |
| 200 nM | 1.1 | 0.794 nM | CC(C)c1csc(C(=O)N2CCOC3(CCN(Cc4cccc(CCOCCC(=O)N(CCNCCc5ccc(O)c6c5OCC(=O)N6)C5CCCCC5)c4)CC3)C2)c1 [Example 98, N-Cyclohexyl-N-(2-(2-(5-hydroxy-3-oxo-3,4-dihydro-2H-benzo[b][1,4]oxazin-8-yl)ethylamino)ethyl)-3-(3-((4-(4-isopropylthiophene-2-carbonyl)-1-oxa-4,9-diazaspiro[5.5]undecan-9-yl)methyl)phenethoxy)propanamide] |
| 31.6 nM | 0.7 | 0.398 nM | CCN(CCNCCc1ccc(O)c2c1OCC(=O)N2)C(=O)CCOCCc1cccc(CN2CCC3(CC2)CN(C(=O)c2csc(C(C)C)n2)CCO3)c1F [Example 15, N-Ethyl-3-(2-fluoro-3-((4-(2-isopropylthiazole-4-carbonyl)-1-oxa-4,9-diazaspiro[5.5]undecan-9-yl)methyl)phenethoxy)-N-(2-(2-(5-hydroxy-3-oxo-3,4-dihydro-2H-benzo[b][1,4]oxazin-8-yl)ethylamino)ethyl)propanamide ditrifluoroacetate] |
| 200 nM | 1.0 | 1 nM | CCCN(CCNCCc1ccc(O)c2[nH]c(=O)sc12)C(=O)CCOCCc1ccc(CCN2CCC3(CC2)CN(C(=O)c2csc(CC)n2)CCO3)cc1 [Example 3, 3-(4-(2-(4-(2-Ethylthiazole-4-carbonyl)-1-oxa-4,9-diazaspiro[5.5]undecan-9-yl)ethyl)phenethoxy)-N-(2-(2-(4-hydroxy-2-oxo-2,3-dihydrobenzo[d]thiazol-7-yl)ethylamino)ethyl)-N-propylpropanamide ditrifluoroacetate] |
| 10 nM | 0.9 | 0.794 nM | CC[C@@H](C)N(CCNCCc1ccc(O)c2c1OCC(=O)N2)C(=O)CCOCCc1cccc(CCN2CCC3(CC2)CN(C(=O)c2csc(C(C)C)n2)CCO3)c1 [Example 37, (R)—N-sec-Butyl-N-(2-(2-(5-hydroxy-3-oxo-3,4-dihydro-2H-benzo[b][1,4]oxazin-8-yl)ethylamino)ethyl)-3-(3-(2-(4-(2-isopropylthiazole-4-carbonyl)-1-oxa-4,9-diazaspiro[5.5]undecan-9-yl)ethyl)phenethoxy)propanamide ditrifluoroacetate] |
| 50.1 nM | 1.0 | 0.251 nM | COCCCN(CCNCCc1ccc(O)c2c1OCC(=O)N2)C(=O)CCOCCc1cccc(CN2CCC3(CC2)CN(C(=O)c2csc(C(C)C)n2)CCO3)c1Cl [Example 71, 3-(2-Chloro-3-((4-(2-isopropylthiazole-4-carbonyl)-1-oxa-4,9-diazaspiro[5.5]undecan-9-yl)methyl)phenethoxy)-N-(2-(2-(5-hydroxy-3-oxo-3,4-dihydro-2H-benzo[b][1,4]oxazin-8-yl)ethylamino)ethyl)-N-(3-methoxypropyl)propanamide ditrifluoroacetate] |
| 15.8 nM | 1.2 | 2.51 nM | CC(C)c1nc(C(=O)N2CCOC3(CN(CCc4cccc(CCOCCC(=O)N(CCNCCc5ccc(O)c6c5OCC(=O)N6)C5CCCCC5)c4)C3)C2)cs1 [Example 176, N-Cyclohexyl-N-(2-(2-(5-hydroxy-3-oxo-3,4-dihydro-2H-benzo[b][1,4]oxazin-8-yl)ethylamino)ethyl)-3-(3-(2-(8-(2-isopropylthiazole-4-carbonyl)-5-oxa-2,8-diazaspiro[3.5]nonan-2-yl)ethyl)phenethoxy)propanamide, trifluoroacetate salt] |
| – | – | 0.501 nM | CCc1nc(C(=O)N2CCOC3(CCN(Cc4cccc(CCOCCC(=O)N(CCNCCc5ccc(O)c6c5OCC(=O)N6)C5CCCC5)c4Cl)CC3)C2)cs1 [Example 33a, 3-(2-chloro-3-((4-(2-ethylthiazole-4-carbonyl)-1-oxa-4,9-diazaspiro[5.5]undecan-9-yl)methyl)phenethoxy)-N-cyclopentyl-N-(2-(2-(5-hydroxy-3-oxo-3,4-dihydro-2H-benzo[b][1,4]oxazin-8-yl)ethylamino)ethyl)propanamide, sulphate salt] |

Reference: patent publication US8476265B2, “Compounds-801” (AstraZeneca AB, priority 2010, dated 2013)
